Data: patent publication US20070213326A1, “SUBSTITUTED INDOLE COMPOUNDS AND THEIR USE AS 5-HT6 RECEPTOR MODULATORS” (LABORATORIOS DEL DR. ESTEVE S.A., priority 2004, published 2007)
Where a name gives a salt, the structure may show the parent alone.

Test system: not given
Test: not given
Settings: not given

Row | Structure (SMILES) | melting point [°C]
1 | CN(C)CCc1c[nH]c2cc(NS(=O)(=O)c3c(Cl)nc4sccn34)ccc12 [Example 13, 6-chloro-N-(3-(2-(dimethylamino)ethyl)-1H-indol-6-yl)imidazo[2,1-b]thiazole-5-sulfonamide] | 138 to 142
2 | CCN(CC)CCc1c[nH]c2cc(NS(=O)(=O)c3cccc4c(Cl)cccc34)ccc12 | 86 to 90
3 | CN(C)CCc1c[nH]c2cccc(NS(=O)(=O)c3c(Cl)nc4sccn34)c12 | 216
4 | CN(C)CCc1c[nH]c2cc(NS(=O)(=O)c3ccc4ccccc4c3)ccc12 [Example 11, N-(3-(2-(dimethylamino)ethyl)-1H-indol-6-yl)naphthalene-2-sulfonamide] | 150 to 151
5 | CN(C)CCc1c[nH]c2cccc(NS(=O)(=O)c3cc(Cl)cc(Cl)c3)c12 | 212 to 215
6 | CCN(CC)CCc1c[nH]c2cc(NS(=O)(=O)c3ccc4ccccc4c3)ccc12 | 146 to 147
7 | CN(C)CCc1c[nH]c2cc(NS(=O)(=O)c3cccc4ccccc34)ccc12 [Example 12, N-(3-(2-(dimethylamino)ethyl)-1H-indol-6-yl)naphthalene-1-sulfonamide] | 167 to 168
8 | CN(C)CCc1c[nH]c2cc(N(S(=O)(=O)c3cc(Cl)c(Cl)s3)S(=O)(=O)c3cc(Cl)c(Cl)s3)ccc12 | 187 to 188
9 | CCN(CC)CCc1c[nH]c2c(NS(=O)(=O)c3sc4ccc(Cl)cc4c3C)cccc12 | 79 to 84
10 | CN(C)CCc1c[nH]c2cc(N(S(=O)(=O)c3cc(Cl)cc(Cl)c3)S(=O)(=O)c3cc(Cl)cc(Cl)c3)ccc12 | 103 to 107
11 | CCN(CC)CCc1c[nH]c2cc(NS(=O)(=O)c3ccc(Oc4ccccc4)cc3)ccc12 | 50 to 53
12 | Cc1c(S(=O)(=O)N(c2cccc3c(CCN(C)C)c[nH]c23)S(=O)(=O)c2sc3ccc(Cl)cc3c2C)sc2ccc(Cl)cc12 | 110 to 120
13 | CCN(CC)CCc1c[nH]c2cc(NS(=O)(=O)c3cccc4ccccc34)ccc12 | 183 to 187
14 | CN(C)CCc1c[nH]c2cc(NS(=O)(=O)c3ccc(Oc4ccccc4)cc3)ccc12 | 170 to 171
15 | CCN(CC)CCc1c[nH]c2cc(NS(=O)(=O)c3ccc(-c4ccccc4)cc3)ccc12 | 81 to 85
16 | CCOC(CN(C)C)c1c[nH]c2c(NS(=O)(=O)c3sc4ccc(Cl)cc4c3C)cccc12 (stereo not shown) | 145
17 | CCN(CC)CCc1c[nH]c2cc(NS(=O)(=O)c3cc(Cl)c(Cl)s3)ccc12 | 200 to 205
18 | CCN(CC)CCc1c[nH]c2c(N(S(=O)(=O)c3sc4ccc(Cl)cc4c3C)S(=O)(=O)c3sc4ccc(Cl)cc4c3C)cccc12 | 87 to 90

Row | Structure (SMILES) | melting point [°C]
19 | CN(C)CCc1c[nH]c2cc(NS(=O)(=O)CCc3cccc4ccccc34)ccc12 | 90
20 | CN(C)CCc1c[nH]c2cc(NS(=O)(=O)c3cc(Cl)cc(Cl)c3)ccc12 | 96 to 98
21 | CCOC(CN(C)C)c1c[nH]c2cc(N(S(=O)(=O)c3sc4ccc(Cl)cc4c3C)S(=O)(=O)c3sc4ccc(Cl)cc4c3C)ccc12 (stereo not shown) | 208
22 | CN(C)CCc1c[nH]c2cc(N(S(=O)(=O)c3c(Cl)nc4sccn34)S(=O)(=O)c3c(Cl)nc4sccn34)ccc12 | 210
23 | CN(C)CCc1c[nH]c2cccc(NS(=O)(=O)CCc3cccc4ccccc34)c12 (as salt: TFA) | 170 to 172
24 | CCN(CC)CCc1c[nH]c2cc(NS(=O)(=O)c3c(Cl)nc4sccn34)ccc12 [Example 4, 6-chloro-N-(3-(2-(diethylamino)ethyl)-1H-indol-6-yl)imidazo[2,1-b]thiazole-5-sulfonamide] | 210 to 212
25 | CCN(CC)CCc1c[nH]c2cc(NS(=O)(=O)c3cc(Cl)cc(Cl)c3)ccc12 | 79 to 85
26 | CN(C)CCc1c[nH]c2cc(NS(=O)(=O)c3cccc4c(Cl)cccc34)ccc12 | 187 to 190
27 | Cc1c(S(=O)(=O)Nc2cccc3[nH]cc(CCN(C)C)c23)sc2ccc(Cl)cc12 | 235 to 236
28 | CN(C)CCc1c[nH]c2cccc(NS(=O)(=O)c3ccc(Oc4ccccc4)cc3)c12 | 78 to 82
29 | CN(C)CCc1c[nH]c2cccc(NS(=O)(=O)c3cccc4ccccc34)c12 | 223 to 225
30 | CN(C)CCc1c[nH]c2cccc(NS(=O)(=O)c3ccc4ccccc4c3)c12 | 165 to 168
31 | CN(C)CCc1c[nH]c2cccc(NS(=O)(=O)c3ccc4c(Cl)cccc4c3)c12 | 198 to 200
32 | CN(C)CCc1c[nH]c2cc(NS(=O)(=O)c3ccc(-c4ccccc4)cc3)ccc12 | 164 to 168
33 | Cc1c(S(=O)(=O)Nc2cccc3c(CCN(C)C)c[nH]c23)sc2ccc(Cl)cc12 | 130 to 140
34 | CN(C)CCc1c[nH]c2cc(NS(=O)(=O)c3cc(Cl)c(Cl)s3)ccc12 | 111 to 114
35 | CN(C)CCc1c[nH]c2cccc(NS(=O)(=O)c3ccc(-c4ccccc4)cc3)c12 | 182 to 184
36 | CCOC(CN(CC)CC)c1c[nH]c2c(N(S(=O)(=O)c3sc4ccc(Cl)cc4c3C)S(=O)(=O)c3sc4ccc(Cl)cc4c3C)cccc12 (stereo not shown) | 155 to 156

Molecular target: T1, 5HT6-human recombinant receptor (Homo sapiens, UniProt P50406)
T1 construct: purchased Receptor Biology; host or cells: HEK-293 cells (membranes)
T1 sequence (P50406 whole entry): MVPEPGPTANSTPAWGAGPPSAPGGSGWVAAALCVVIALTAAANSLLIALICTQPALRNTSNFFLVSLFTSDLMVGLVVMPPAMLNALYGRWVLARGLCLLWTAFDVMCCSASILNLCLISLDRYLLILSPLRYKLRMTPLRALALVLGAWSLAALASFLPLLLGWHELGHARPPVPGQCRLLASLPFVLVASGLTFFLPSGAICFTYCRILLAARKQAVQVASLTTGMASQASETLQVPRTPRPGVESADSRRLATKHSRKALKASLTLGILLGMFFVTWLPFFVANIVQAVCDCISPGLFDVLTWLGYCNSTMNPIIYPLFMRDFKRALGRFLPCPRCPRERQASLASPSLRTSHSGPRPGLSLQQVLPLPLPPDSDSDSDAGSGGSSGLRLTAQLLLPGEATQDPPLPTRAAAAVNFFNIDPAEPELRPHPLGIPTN
Test: Binding to serotonin receptor 5-HT6 ([H]-LSD radioligand, HEK-293 cell membranes)
Settings: membranes of HEK-293 cells expressing 5HT6-human recombinant receptor; [H]-LSD 2.7 nM; 60 minutes at 37° C.
Experimental: I) Binding to Serotonin Receptor 5-HT6
Cell membranes of HEK-293 cells expressing the 5HT6-human recombinant receptor were supplied by Receptor Biology. In said membranes the receptor concentration is 2.18 pmol/mg protein and the protein concentration is 9.17 mg/ml. The experimental protocol follows the method of B. L. Roth et al. [B. L. Roth, S. C. Craigo, M. S. Choudhary, A. Uluer, F. J. Monsma, Y. Shen, H. Y. Meltzer, D. R. Sibley: Binding of Typical and Atypical Antipsychotic Agents to 5-Hydroxytryptamine-6 and Hydroxytryptamine-7 Receptors. The Journal of Pharmacology and Experimental Therapeutics, 1994, 268, 1403] with the following slight changes. The respective part of the literature description is hereby incorporated by reference and forms part of the disclosure.
The commercial membrane is diluted (1:40 dilution) with the binding buffer: 50 mM Tris-HCl, 10 mM MgCl2, 0.5 mM EDTA (pH 7.4). The radioligand used is [H]-LSD at a concentration of 2.7 nM with a final volume of 200 μl. Incubation is initiated by adding 100 μl of membrane suspension, (≈22.9 μg membrane protein), and is prolonged for 60 minutes at a temperature of 37° C. The incubation is ended by fast filtration in a Brandel Cell Harvester through fiber glass filters made by Schleicher & Schuell G F 3362 pretreated with a solution of polyethylenimine at 0.5%. The filters are washed three times with three milliliters of buffer Tris-HCl 50 mM pH 7.4. The filters are transferred to flasks and 5 ml of Ecoscint H liquid scintillation cocktail are added to each flask. The flasks are allowed to reach equilibrium for several hours before counting with a Wallac Winspectral 1414 scintillation counter. Non-specific binding is determined in the presence of 100 μM of serotonin. Tests were made in triplicate. The inhibition constants (Ki, nM) were calculated by non-linear regression analysis using the program EBDA/LIGAND described in Munson and Rodbard, Analytical Biochemistry, 1980, 107, 220, the respective part of which is hereby incorporated by reference and forms part of the disclosure.
The binding of the substituted indole compounds to the 5-HT6 receptor was determined as described above.

Row | Structure (SMILES) | Ki [nM]
37 | CN(C)CCc1c[nH]c2cc(NS(=O)(=O)c3c(Cl)nc4sccn34)ccc12 [Example 13, 6-chloro-N-(3-(2-(dimethylamino)ethyl)-1H-indol-6-yl)imidazo[2,1-b]thiazole-5-sulfonamide] | 7.3
38 | CN(C)CCc1c[nH]c2cc(NS(=O)(=O)c3ccc4ccccc4c3)ccc12 [Example 11, N-(3-(2-(dimethylamino)ethyl)-1H-indol-6-yl)naphthalene-2-sulfonamide] | 42.6
39 | CN(C)CCc1c[nH]c2cc(NS(=O)(=O)c3cccc4ccccc34)ccc12 [Example 12, N-(3-(2-(dimethylamino)ethyl)-1H-indol-6-yl)naphthalene-1-sulfonamide] | 31.1
40 | CCN(CC)CCc1c[nH]c2cc(NS(=O)(=O)c3c(Cl)nc4sccn34)ccc12 [Example 4, 6-chloro-N-(3-(2-(diethylamino)ethyl)-1H-indol-6-yl)imidazo[2,1-b]thiazole-5-sulfonamide] | 42.8
